Legend:
[1] = NOVARTIS: Cytotoxicity against human hepatocellular carcinoma cell line (Huh7); assay type: toxicity, cell-based, Huh-7; conditions: Huh7 cells (hepatocellular carcinoma cell line)
[2] = system: Plasmodium falciparum; assay: NOVARTIS: Inhibition of Plasmodium falciparum 3D7 (drug-susceptible) proliferation in erythrocyte-based infection assay; assay type: functional, organism-based; conditions: Plasmodium falciparum, 3D7
[3] = system: Plasmodium falciparum; assay: NOVARTIS: Inhibition of Plasmodium falciparum W2 (drug-resistant) proliferation in erythrocyte-based infection assay; assay type: functional, organism-based; conditions: Plasmodium falciparum, W2; read-out: EC50

Compound | CC50 [1] [µM] | EC50 [2] [nM] | EC50 [3] [nM]
COC1=CC(C)=C[C@@H](C)[C@@H](O)[C@H](C)CC(C)=CC=C[C@H](OC)[C@@H](C(C)C(O)[C@H](C)[C@@]2(O)C[C@@H](O)[C@H](C)[C@@H](C(C)C)O2)OC1=O (some centres undefined) | > 10 | 1490 | 11.3
COc1ccc(NC(=O)c2cc3cc(C4(O)CCN(Cc5cc6ccccc6[nH]5)CC4)ccc3o2)cc1 | 20.5 | 272 | 650
Cc1ccn2c(NC(C)(C)CC(C)(C)C)c(-c3ccccc3OC(=O)c3ccccc3C)nc2c1 | > 10 | 757 | < 9.03
COc1cc(C=CC(=O)Nc2c3c(nn2-c2ccc(F)cc2)CSC3)cc(OC)c1OC | > 100 | 918 | 381
Cc1csc(NC(=O)C2c3ccccc3C(=O)N(CC(C)C)C2c2cccs2)n1 (centres undefined) | > 10 | 611 | 785
OC(CN1CCN(Cc2ccccc2)CC1)Cn1c2ccc(I)cc2c2cc(I)ccc21 (centres undefined) | 20.1 | 651 | 148
CN(C)c1ccc(-c2n(C)c3ccccc3[n+]2C)cc1 | > 100 | 1120 | 636
CC1=C(C(=O)OC2CCCC2)C(c2ccc(Cl)cc2)C2=C(CC(c3ccc(Cl)cc3)CC2=O)N1 (centres undefined) | > 100 | 2590 | 487
Nc1c(C(=O)Nc2ccc(Br)cc2)sc2nc3c(c(-c4cccs4)c12)CCC3 | > 100 | 1040 | 776
O=C1CSC(=S)N1c1cccc(Cl)c1 | > 100 | 6870 | > 12500
c1ccc2cc3c(NCCN4CCOCC4)ccnc3cc2c1 | > 10 | 310 | 313
COCCOC(=O)C1=C(C)NC2=C(C(=O)CC(c3ccc(OC)cc3)C2)C1c1ccc(Cl)cc1 (centres undefined) | > 100 | 167 | 33.2
COC(=O)c1c(OCc2ccc(F)cc2)cc(=O)n2c1CCN(Cc1ccccc1)CC2 | > 100 | 3940 | 538
CC(C)CNC(=O)c1cnc(NCCCn2ccnc2)nc1NCC(C)C | > 10 | 768 | 1610
COc1ccc(-c2c[n+](Cc3ccccc3Cl)c3n2CCC3)cc1 | 52.5 | 578 | 532
Cc1ccc(CNC(=O)c2cc3sc(Cl)cc3n2C)cc1 | > 100 | 3130 | 1590
Cc1c(Cl)cccc1NC(=S)N(CCCN(C)c1ccccc1)Cc1cccn1Cc1ccc(Cl)cc1 | > 100 | > 7300 | > 10000

Compound | CC50 [1] [µM] | EC50 [2] [nM] | EC50 [3] [nM]
CCCCNC1=CC(=O)C(=O)c2ccccc21 | > 77.9 | 481 | 324
COc1ccc(-n2nc(C(=O)NCC(=O)NCCCN3CCOCC3)c3ccccc3c2=O)cc1Cl | > 10 | 1260 | > 1250
Oc1cc(-c2ccccc2)nc2ccccc12 | > 93.2 | 1060 | 547
O=C1[C@@H]2Cc3c([nH]c4ccccc34)C(CCc3ccccc3)N2C(=O)CN1CCc1c[nH]c2ccccc12 (some centres undefined) | > 100 | 2810 | 1050
CCC(C)N1CCN(Cc2cccc(OC)c2OC)CC1 (centres undefined) | > 10 | > 1250 | > 169
CCC(c1nc2ccccc2c(=O)n1-c1ccccc1OC)N(CCc1ccccc1)C(=O)c1ccc(F)cc1 (centres undefined) | > 7.25 | 1020 | 180
O=c1[nH]nc(SCc2c(F)cccc2[N+](=O)[O-])c(=O)[nH]1 | > 10 | > 1250 | > 695
CC(=O)OCC(=O)[C@@]1(O)CCC2C3CCC4=CC(=O)CC[C@]4(C)C3[C@@H](O)C[C@@]21C (some centres undefined) | > 10 | > 1250 | < 23
CN1[C@@H](C(=O)Nc2ccc3c(c2)OCO3)C[C@@H](c2ccc(F)cc2)NS1(=O)=O | > 10 | 1960 | > 1570
O=[N+]([O-])c1ccc2nc(Nc3ccccc3)c(Nc3ccccc3)nc2c1 | 21.7 | 941 | 955
COc1ccc(NC(=O)CN2CCN(S(=O)(=O)c3cccc([N+](=O)[O-])c3)CC2)c(OC)c1 | > 100 | > 12500 | 1300
CC(C)CNC(=O)c1cnc(NCCCn2ccnc2)nc1NC1CCCC1 | > 10 | 678 | > 298
COC1C(OC2OC(C)C(O)C(C)(O)C2OC)c2c(cc3c(c2O)C(=O)c2c(ccc4c2OC2OC4(C)C(OC4CC(C)([N+](=O)[O-])C(OC5OC(C)C(O)C(C)(O)C5OC)C(C)O4)C(N(C)C)C2O)C3=O)CC1(C)O (centres undefined) | > 10 | 131 | 70.1
OCCN(CCO)CC(O)Cn1c2ccc(Br)cc2c2cc(Br)ccc21 (centres undefined) | 27.3 | 2330 | 1550
CC1=CC(=Cc2sc3ccccc3[n+]2C)C=C(C)O1 | 8.35 | 31.3 | 23.7
COc1cccc(C(=O)Oc2ccccc2-c2nc3cc(C)ccn3c2NC(C)(C)CC(C)(C)C)c1 | > 10 | 986 | 6.15
